Laboratory results as given in patent publication US20090209535A1, “6-ETHER/THIOETHER-PURINES AS TOPOISOMERASE II CATALYTIC INHIBITORS AND THEIR USE IN THERAPY” (TOPOTARGET A/S, priority 2005, published 2009).

Assays:
[1] = target: T1, bisdioxopiperazine resistant Y165S mutant human topoisomerase II α (Homo sapiens, UniProt P11388, Y165S); format: biochemical; details: FIG. 2-B
T1 construct: made in house; host or cells: yeast (over-expressing yeast cells)

topoisomerase II α = topoisomerase II α (Homo sapiens, UniProt P11388); test: Band depletion assay (extractable topoisomerase II α, western blot); format: cell-based; design: OC—NYH cells were exposed to increasing concentrations of NSC 35866 for one hour and total proteins were extracted at 0.3 M NaCl; endogenous in cells; host or cells: human small cell lung cancer OC-NYH cells; details: OC—NYH cells, one hour
Protocol: Band depletion assay was performed essentially as described in Sehested et al., 1998. The amount of extractable topoisomerase II α was detected by the ECL detection method (Amersham, Buckinghamshire, United Kingdom). OC—NYH cells were exposed to increasing concentrations of NSC 35866 for one hour and total proteins were extracted at 0.3 M NaCl. For detection of topoisomerase II α, a polyclonal primary antibody (Bio Trend, Cologne, Germany) was used. Horseradish peroxidase linked anti-rabbit antibody (Amersham, Buckinghamshire, United Kingdom) was used as secondary antibody.
FIG. 10 describes the results of studies of the ability of NSC 35866 to trap human topoisomerase II α as a non-extractable complex on DNA in a dose dependent manner. The ability of NSC 35866 to stabilise topoisomerase II α as a non-extractable complex on DNA in human SCLC OC—NYH cells was assessed using the band depletion assay as described herein. The amounts of topoisomerase II α was visualised by western blotting using a topoisomerase II α specific primary antibody: Lane 1, no drug; Lane 2, 200 μM ICRF-187; Lane 3, 200 μM NSC 35866; Lane 4, 500 μM NSC 35866; Lane 5, 1000 μM NSC 35866. Band depletion of the topoisomerase II α isoform caused by NSC 35866 was detected in two independent experiments.

[2] = target: T2, human topoisomerase II α-DNA covalent complexes (Homo sapiens, UniProt P11388); test: Topoisomerase II DNA cleavage assay (phenol-chloroform extraction, Δcpm); format: biochemical; details: 1000 μM
T2 construct: made in house; host or cells: yeast (over-expressing yeast cells)

human SCLC NCI-H69 cells = test: Protection from etoposide-induced cytotoxicity, NCI-H69; format: cell-based
human SCLC OC—NYH cells = test: Alkaline elution assay (DNA breaks); format: cell-based
Protocol: Alkaline elution assay was performed as described in Kohn et al., 1976 with modifications as described in Sehested et al., 1998. Briefly, to assess the ability of NSC 35866 to protect against etoposide-induced DNA breaks, cells were incubated with increasing concentrations of NSC 35866 for 10 minutes, before 3 μM etoposide was added to the samples. The cells were then co-incubated with 3 μM etoposide along with the same concentrations of NSC 35866 for 60 minutes. Some samples contained no etoposide in order to assess whether NSC 35866 induced DNA breaks by itself. After incubation with drug, cells were lysed and the DNA fragments eluted. DNA in the experimental OC—NYH cells was metabolically labelled by ^14C-thymidine incorporation while DNA in the internal control L1210 cells was metabolically labelled by ^3H-thymidine incorporation.
FIG. 9 describes the results of studies of the ability of NSC 35866 to antagonise DNA breaks induced by etoposide in human SCLC OC—NYH cells in a dose dependent manner. Alkaline DNA elution was used to detect DNA fragmentation induced by 3 μM etoposide in the presence of increasing concentrations of NSC 35866 as described herein. H202 treated mouse leukemic L1210 cells were used as internal control for DNA fragmentation. The DNA of the experimental OC—NYH cells was ^14C-labelled while the DNA of the L1210 cells was 3H-labelled.

Chain of topoisomerase II α (P11388 whole entry): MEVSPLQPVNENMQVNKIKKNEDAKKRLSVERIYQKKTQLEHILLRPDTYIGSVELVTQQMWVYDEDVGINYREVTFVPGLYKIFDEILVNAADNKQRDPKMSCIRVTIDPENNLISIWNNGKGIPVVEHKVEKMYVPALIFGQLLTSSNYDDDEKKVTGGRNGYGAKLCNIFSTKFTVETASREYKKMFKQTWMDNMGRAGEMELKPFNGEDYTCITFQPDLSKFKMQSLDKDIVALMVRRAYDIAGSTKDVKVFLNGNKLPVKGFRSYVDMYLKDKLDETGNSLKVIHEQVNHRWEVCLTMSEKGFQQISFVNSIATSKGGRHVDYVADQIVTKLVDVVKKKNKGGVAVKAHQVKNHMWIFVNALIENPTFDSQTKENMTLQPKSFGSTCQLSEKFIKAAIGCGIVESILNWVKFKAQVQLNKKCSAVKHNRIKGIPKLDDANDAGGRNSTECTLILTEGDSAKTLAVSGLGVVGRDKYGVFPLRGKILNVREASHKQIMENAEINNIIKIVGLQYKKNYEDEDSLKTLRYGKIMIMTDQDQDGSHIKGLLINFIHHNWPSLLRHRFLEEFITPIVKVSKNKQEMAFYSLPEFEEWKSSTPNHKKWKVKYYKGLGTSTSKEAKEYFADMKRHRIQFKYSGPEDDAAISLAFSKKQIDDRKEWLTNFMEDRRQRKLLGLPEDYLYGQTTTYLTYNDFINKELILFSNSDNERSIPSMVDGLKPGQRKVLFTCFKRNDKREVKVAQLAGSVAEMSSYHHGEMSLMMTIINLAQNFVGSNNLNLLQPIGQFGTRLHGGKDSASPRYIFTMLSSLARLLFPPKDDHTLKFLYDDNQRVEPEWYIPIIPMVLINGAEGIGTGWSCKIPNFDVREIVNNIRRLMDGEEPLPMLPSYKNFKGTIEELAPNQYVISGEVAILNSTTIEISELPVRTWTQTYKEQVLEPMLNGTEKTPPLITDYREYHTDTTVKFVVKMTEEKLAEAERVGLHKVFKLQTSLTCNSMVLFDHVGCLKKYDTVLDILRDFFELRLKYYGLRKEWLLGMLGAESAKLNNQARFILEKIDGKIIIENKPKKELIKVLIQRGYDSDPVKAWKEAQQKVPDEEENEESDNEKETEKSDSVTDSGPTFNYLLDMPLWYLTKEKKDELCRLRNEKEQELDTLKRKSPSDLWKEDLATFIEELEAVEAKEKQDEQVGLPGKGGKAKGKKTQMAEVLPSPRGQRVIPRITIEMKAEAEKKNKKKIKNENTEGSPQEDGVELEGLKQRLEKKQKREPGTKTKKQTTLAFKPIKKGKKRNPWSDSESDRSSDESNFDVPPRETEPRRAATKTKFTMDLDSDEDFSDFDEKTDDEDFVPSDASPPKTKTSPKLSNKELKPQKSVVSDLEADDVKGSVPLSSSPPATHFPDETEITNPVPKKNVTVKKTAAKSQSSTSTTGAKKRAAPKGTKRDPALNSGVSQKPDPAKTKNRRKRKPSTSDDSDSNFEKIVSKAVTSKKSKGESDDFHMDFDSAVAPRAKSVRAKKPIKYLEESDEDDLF
T2 sequence (P11388 whole entry, one chain of several): as the sequence (P11388 whole entry) above
T1 sequence (P11388 whole entry Y165S): as the sequence (P11388 whole entry) above, with Y165S counted along it

Nc1nc(SCCc2ccccc2)c2nc[nH]c2n1 [NSC 35866, 2-amino-6-(phenylethylthio)-purine] was tested. Which “inhibition of catalytic activity of the Y165S protein, in words” value [1] did it give?
Its value is “capable of doing so”.

What about the “effect on amount of extractable topoisomerase II α, in words” value (“effect on amount” below) (topoisomerase II α; 200 μM) of the same compound?
The value was “no effect”.

And the “effect on amount” value (topoisomerase II α; 500 μM)?
The value was “reduced the amount of extractable topoisomerase II”.

What about the “effect on amount” value (topoisomerase II α; 1000 μM) of the same compound?
The value was “reduced the amount of extractable topoisomerase II”.

And the “effect on level of topoisomerase II-DNA covalent complexes, in words” value [2]?
Its value is “no measurable effect”.

And the “protection from etoposide-induced cytotoxicity, in words” value (human SCLC NCI-H69 cells)?
Its value is “capable of protecting”.

What about the “effect on DNA breaks induced by 3 μM etoposide, in words” value (“effect on DNA breaks induced” below) (human SCLC OC—NYH cells; 30 μM, repeated assay) of the same compound?
Its value is “no detectable effect”.

And the “effect on DNA breaks induced” value (human SCLC OC—NYH cells; 100 μM)?
The value was “no detectable effect”.

And the “effect on DNA breaks induced” value (human SCLC OC—NYH cells; 100 μM, repeated assay)?
Its value is “no detectable effect”.

What about the “effect on DNA breaks induced” value (human SCLC OC—NYH cells; 300 μM, repeated assay) of the same compound?
Its value is “partly antagonised”.

And the “effect on DNA breaks induced” value (human SCLC OC—NYH cells; 500 μM)?
The value was “partly antagonised”.

What about the “effect on DNA breaks induced” value (human SCLC OC—NYH cells; 1000 μM) of the same compound?
The value was “completely antagonised”.

And the “DNA breaks induced by the drug alone, in words” value (human SCLC OC—NYH cells; concentrations up to 1000 μM, no etoposide)?
The value was “does not induce detectable levels of DNA breaks”.
